From patent US20070078116A1, “Method of treatment of otitis externa” (Fairfield Clinical Trials, LLC, priority 2003, published 2007) come the findings set out here.

Experiment [1] concerns Candida albicans (ATCC 90028). As to the kind of experiment: Filter paper disk test on agar plates containing C. albicans. The class given is cell-based. As to conditions: 5 μL or 10 μL on paper disk, 37° C., 24-72 hours. The procedure:
(§1) Candida albicans (ATCC 90028) and Aspergillis fumigatus (ATCC 16424) were tested in vitro for the effect of antifungal compositions according to embodiments of the invention. Fungal cells were obtained from the American Type Culture Collection.
(§2) C. Albicans yeast cells were grown in YM broth (Difco™ 0711-01) containing the following ingredients: 1% peptone, 1% yeast extract and 2% glucose. The cells were grown at 37° C., harvested by centrifugation, resuspended in the same medium and stored frozen at −80° C. The cells were used at a concentration of about 1×10^6 cells/mL. A. fumigatus was cultured on solid MPG containing 20 g/L malt extract (Difco™ 21860); 1 g/L Difco™ 211677); 20 g/L sucrose and 15 g/L Bacto-agar (Difco™ 140-07-04) in water, at 37° C. for 7 to 10 days. Conidia were harvested by flooding the medium with sterile water, filtered through glass wool to exclude hyphal fragments, washed by centrifugation (5000 xg for 10 minutes at 4° C., resuspended at about 1×10^6 conidia/mL in water and stored at −80° C. until used.
(§3) For testing, A. fumigatus conidia and C. albicans cells were thawed. […]
(§4) Samples (5 μL, 10 μL or 20 μL as indicated in the Figures) of liquid drug formulation were placed on sterile filter paper disks and the disks allowed to air dry 15-30 minutes at room temperature in a Class II biosafety hood. […] A portion of each sample was analyzed for potency. […]

The test system of experiment [2] is Aspergillis fumigatus (ATCC 16424). As to the kind of experiment: Filter paper disk test on agar plates containing A. fumigatus (zone of killing). The class given is cell-based. To be noted: 5 μL or 10 μL on paper disk, 37° C., 24-72 hours. On the procedure: as §1, §2, §3, §4

Structures are written as SMILES.

For the molecule `Clc1ccc(COC(Cn2ccnc2)c2ccc(Cl)cc2Cl)c(Cl)c1` (centres unmarked) [Miconazole, miconazole], the “killing of C. albicans (visual observation of plates)” value in experiment [1] was “highly active”. Besides, in experiment [2], the “killing of A. fumigatus (visual observation of plates)” value is “highly active”.
